Source: PMC6467995, “Phosphoregulation of the oncogenic protein regulator of cytokinesis 1 (PRC1) by the atypical CDK16/CCNY complex” (Experimental & Molecular Medicine, 2019)

Key:
Type in all cases: biochemical
[1] = target: T1, CDK16 (analog-sensitive, AS-GST-CDK16) (Homo sapiens, UniProt Q00536, F240G); assay: in vitro kinase assay with [γ-32P]-ATP, dose response
T1 construct: N-terminal GST fusion, full-length, purified from E. coli; with CCNY

[2] = target: T2, CDK16 (WT-GST-CDK16) (Homo sapiens, UniProt Q00536); assay: as above
T2 construct: N-terminal GST fusion, full-length, purified from E. coli; with CCNY
T2 sequence (Q00536 whole entry, the tested form may be a part): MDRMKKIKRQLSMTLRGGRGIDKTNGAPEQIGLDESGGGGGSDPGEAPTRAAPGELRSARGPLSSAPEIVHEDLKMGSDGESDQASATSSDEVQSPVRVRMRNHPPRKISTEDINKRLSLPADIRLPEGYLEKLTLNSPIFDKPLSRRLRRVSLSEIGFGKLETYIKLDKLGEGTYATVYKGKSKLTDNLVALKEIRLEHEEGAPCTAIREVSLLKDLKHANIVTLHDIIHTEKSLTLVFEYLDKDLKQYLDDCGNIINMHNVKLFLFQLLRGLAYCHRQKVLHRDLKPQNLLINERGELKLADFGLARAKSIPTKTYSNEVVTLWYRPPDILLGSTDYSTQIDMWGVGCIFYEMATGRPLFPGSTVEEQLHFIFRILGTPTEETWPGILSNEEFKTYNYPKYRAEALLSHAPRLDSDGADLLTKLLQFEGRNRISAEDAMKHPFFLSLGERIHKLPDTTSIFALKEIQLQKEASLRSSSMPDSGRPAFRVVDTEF
T2 sequence (Q8ND76 2-341 partner): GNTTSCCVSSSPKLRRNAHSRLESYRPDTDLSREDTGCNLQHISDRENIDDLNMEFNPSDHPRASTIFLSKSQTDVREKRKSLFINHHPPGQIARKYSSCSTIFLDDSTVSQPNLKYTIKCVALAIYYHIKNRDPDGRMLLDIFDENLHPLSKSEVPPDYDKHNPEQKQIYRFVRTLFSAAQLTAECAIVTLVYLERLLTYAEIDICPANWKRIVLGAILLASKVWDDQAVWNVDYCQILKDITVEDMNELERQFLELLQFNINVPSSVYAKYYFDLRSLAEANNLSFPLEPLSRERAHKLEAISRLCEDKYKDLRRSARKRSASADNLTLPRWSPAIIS

[3] = target: T2, CDK16 (WT-GST-CDK16); assay: in vitro kinase assay, thiophosphate transfer to CCNY

T1 sequence (Q00536 whole entry F240G, the tested form may be a part): as the sequence (Q00536 whole entry, the tested form may be a part) above, with F240G counted along it
T1 sequence (Q8ND76 2-341 partner): as the sequence (Q8ND76 2-341 partner) above

IC50 [1] | IC50 [2] | SMILES | in vitro kinase assay, thiophosphate transfer to CCNY [3]
1.23 µM | 4.4 µM | Cc1cccc(Cc2nn(C(C)(C)C)c3ncnc(N)c23)c1 [3MBPP1, 1-(tert-butyl)-3-(3-methylbenzyl)-1H-pyrazolo[3,4-d]pyrimidin-4-amine] | 
 |  | Nc1ncnc2c1ncn2[C@@H]1O[C@H](CO[P@](=O)(O)O[P@](=O)(O)O[P@@](=O)(O)S)[C@@H](O)[C@H]1O [ATPγS] | WT-CDK16 used ATPγS to phosphorylate GST-CCNY, it could not use the N^6-modified bulky forms
